Values of other authors in US11859165B2, “Open-top microfluidic device with structural anchors” (EMULATE, INC., priority 2015, dated 2024).

Tested on: cell monolayers with tight junctions
Conditions: passive paracellular diffusion across cell monolayers; value reported to be indicative of well-established monolayers

Lucifer Yellow
Permeability (Papp) for LY: 0.5 to 1.2 ×10⁻⁶ cm/s
